Results taken from US20080280764A1, “Method of Desiccating and/or Defoliating Glyphosate Resistant Crops” (priority 2005, published 2008).

Test system: Glyphosate resistant cotton
Experiment: Field test: defoliation and desiccation of glyphosate resistant cotton
Assay type: in vivo
Conditions: post-emergence spray, scale 0-100% vs untreated plots
Experimental: In the examples below, the value E which is to be expected if the activity of the individual compounds is just additive was calculated using the method of S. R. Colby (1967) “Calculating synergistic and antagonistic responses of herbicide combinations”, Weeds 15, p. 22 ff.
where X=effect in percent using active compound A at an application rate a; Y=effect in percent using active compound B at an application rate b; E=expected effect (in %) of A+B at application rates a+b.
If the experimentally determined value is higher than the value E calculated according to Colby's equation, a synergistic effect is present.
The phenyluracils I and/or the other active ingredients according to the present invention were formulated in a suitable way, either separately or in mixture, e.g. as emulsifiable concentrates (EC), soluble concentrates (SL), suspo-emulsions (SE), suspension concentrates (SC) or water-dispersible granules (WG). The formulation(s) were suspended or emulsified in water as a distribution medium immediately prior to spraying. Afterwards, the aqueous mixture was evenly sprayed on the test plots by means of finely distributing nozzles.
The test plots of rows of fully mature crop plants at the beginning of leaf fall were of uniform size (typically between 14 and 37 square meters, each) and the distribution of treated and untreated plots was organized according to a randomised bloc design. The plots were treated post-emergence, i.e. the aqueous mixture as described above was sprayed on the crop plants.
The evaluation of the defoliation or desiccation caused by the phenyluracils I and/or the other active ingredients according to the present invention was carried out using a scale from 0 to 100%, compared to the untreated control plots. Here, 0 means no defoliation or desiccation and 100 means complete defoliation of the crop plants, or complete desiccation of the leaves of the crop plant.
Defoliation and Desiccation of Glyphosate Resistant Cotton by the Phenyluracil 1.7 Alone as Well as by a Mixture of the Phenyluracil 1.7 and Glyphosate; Field Test
In this example, glyphosate (isopropylammonium salt) was formulated as a 360 g/l SL and Phenyluracil 1.7 as a 120 g/l EC. Prior to application, the formulated active ingredients were tank-mixed with an aqueous 140 l/ha spray solution which contained, in addition, 10 g/l of Agridex.

[1] = use rate Phenyluracil I.7 12.5 g/ha

## O=C(O)CNCP(=O)(O)O [Glyphosate, glyphosate]
Use rate glyphosate 840 g/ha
  Glyphosate resistant cotton defoliation at 4 DAT (% defoliation), Found: 0%
  Glyphosate resistant cotton desiccation at 4 DAT (% desiccation), Found: 3%

## CC(C)N(C)S(=O)(=O)NC(=O)c1cc(-n2c(=O)cc(C(F)(F)F)n(C)c2=O)c(F)cc1Cl [I.7]
[1]
  Glyphosate resistant cotton defoliation at 4 DAT (% defoliation), Found: 13%
  Glyphosate resistant cotton desiccation at 4 DAT (% desiccation), Found: 63%
